Source: patent US9845310B2 (priority 2015, dated 2017)
Values belong to the molecule of their own block, whether it stands above or below them.

Columns and labels:
[1] = tested on: heart failure rat model; conditions: captopril alone, acute settings, heart failure rats in vivo
[2] = target: human APJ and the AT1R receptor (Homo sapiens (Human), UniProt P30556+P35414); assay: IP1 TR-FRET assay of AngII response with or without APJ agonists in double stable CHO-K1 APJ/AT1R cells; format: cell-based; conditions: in the presence of AngII; losartan added
Chain of human APJ and the AT1R receptor (P35414 whole entry, looked up, the tested form may be a part): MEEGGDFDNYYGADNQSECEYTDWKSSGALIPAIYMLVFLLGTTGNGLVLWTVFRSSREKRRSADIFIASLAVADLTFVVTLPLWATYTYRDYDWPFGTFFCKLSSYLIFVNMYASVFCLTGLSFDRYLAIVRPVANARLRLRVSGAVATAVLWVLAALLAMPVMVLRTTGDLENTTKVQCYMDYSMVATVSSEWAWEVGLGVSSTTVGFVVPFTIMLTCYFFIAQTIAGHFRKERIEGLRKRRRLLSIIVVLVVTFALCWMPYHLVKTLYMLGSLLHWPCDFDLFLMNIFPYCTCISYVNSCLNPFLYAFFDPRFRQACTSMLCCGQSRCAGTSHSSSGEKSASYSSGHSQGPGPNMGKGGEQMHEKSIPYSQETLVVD
Chain of human APJ and the AT1R receptor (P30556 whole entry, looked up, the tested form may be a part): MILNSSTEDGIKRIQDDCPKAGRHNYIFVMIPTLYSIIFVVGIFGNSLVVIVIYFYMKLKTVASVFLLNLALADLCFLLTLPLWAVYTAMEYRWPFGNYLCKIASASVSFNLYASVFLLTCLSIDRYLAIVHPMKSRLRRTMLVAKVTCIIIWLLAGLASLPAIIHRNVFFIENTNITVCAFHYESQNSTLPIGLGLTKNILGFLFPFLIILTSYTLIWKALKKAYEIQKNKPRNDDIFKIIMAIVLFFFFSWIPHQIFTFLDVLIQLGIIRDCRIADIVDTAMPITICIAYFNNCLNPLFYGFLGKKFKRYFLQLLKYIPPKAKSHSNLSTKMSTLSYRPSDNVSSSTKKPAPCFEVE
Description: Single and double stable recombinant cell lines were generated for human APJ and the AT1R receptor in CHO K1 cells tagged either with FLAG or hemagglutinin (HA) tag. Briefly, the CHO-K1 APJ/AT1R cells were seeded in culture medium of DMEM-F12 and 10% FBS at a density of 15 k/well in a 96 well plate overnight. The next day, the culture medium was replaced with medium containing no serum for 4 hours. The compound AngII at a range of concentrations (1 pM-10 μM) with or without different concentrations of APJ agonists were diluted in stimulation buffer and added to the cell plate. The plate was sealed and incubated for 1 hour. This was followed by addition of IP-d2 conjugate followed by europium cryptate antibody conjugate into the wells. The plate was sealed, followed with incubation for 2 hours at room temperature. Time-resolved fluorescence resonance energy (TR-FRET) at 620 nm and 665 nm was measured after 2 hours with an Envision reader. The signal ratios and delta F were calculated and the amount of IP1 produced was inversely proportional to the TR-FRET ratio, 665/620 nm.

[3] = tested on: isolated perfused rat hearts; assay: Ex vivo isolated perfused rat heart (Langendorff) assay, load independent inotropic and lusitropic effects; conditions: ARB losartan together with APJ agonist
[4] = tested on: heart failure rat model; format: in vivo; conditions: ARB losartan together with APJ agonist
Description: Male Lewis rats (Charles River, USA) at 2-3 months of age were used for the study. […] APJ agonists were administered dose dependently acutely for a period of 30 min.

[5] = target: human AT1R receptor expressed in the CHO cell line (Homo sapiens (Human), UniProt P30556); conditions: different concentrations of AngII with fixed concentration of pyr apelin-13; human AT1R expressed alone in CHO cells
Chain of human AT1R receptor expressed in the CHO cell line (P30556 whole entry): as the sequence (P30556 whole entry, looked up, the tested form may be a part) above
Description: The function of the inositol phosphate accumulation (IP1) was measured by Time-resolved fluorescence resonance energy (TR-FRET) at 620 nm and 665 nm respectively.

Molecule: C[C@H](CS)C(=O)N1CCC[C@H]1C(=O)O [Captopril, captopril]
contractility or ejection fraction [1]: does not show a marked improvement

effect on the positive cooperativity induced by APJ small molecule agonists [2]: relieved this cooperativity
APJ receptor signaling on blocking AT1R, ex-vivo studies [3]: synergistic effects
Molecule: CCCCc1nc(Cl)c(CO)n1Cc1ccc(-c2ccccc2-c2nn[nH]n2)cc1 [losartan]
APJ receptor signaling on blocking AT1R, in vivo studies [4]: synergistic effects

Molecule: pyr apelin-13
positive cooperativity (IP1 accumulation) [5]: no positive cooperativity observed
